Results reported in patent US20050282743A1, “Molecular interactions in cells” (Arbor Vita Corporation, priority 2001, published 2005).
Ends that are not written are not given here. Peptide text beside a SMILES is read from it. * marks the point of attachment. Biotin = O=C1N[C@H]2[C@H](CS[C@H]2CCCCC(=O)*)N1

These molecules were tested against T1, PDZ protein (GST-PDZ fusion) (Homo sapiens, UniProt Q9NSN8) (assay: G' assay (10 uM PL peptide), results of TABLE 7 and TABLE 12). Conditions: PDZ Syntrophin gamma-1, PDZ Domain 1.
T1 construct: made in house; host or cells: E. coli (DH5alpha, BL21 or JM109)
T1 sequence (Q9NSN8 1-517): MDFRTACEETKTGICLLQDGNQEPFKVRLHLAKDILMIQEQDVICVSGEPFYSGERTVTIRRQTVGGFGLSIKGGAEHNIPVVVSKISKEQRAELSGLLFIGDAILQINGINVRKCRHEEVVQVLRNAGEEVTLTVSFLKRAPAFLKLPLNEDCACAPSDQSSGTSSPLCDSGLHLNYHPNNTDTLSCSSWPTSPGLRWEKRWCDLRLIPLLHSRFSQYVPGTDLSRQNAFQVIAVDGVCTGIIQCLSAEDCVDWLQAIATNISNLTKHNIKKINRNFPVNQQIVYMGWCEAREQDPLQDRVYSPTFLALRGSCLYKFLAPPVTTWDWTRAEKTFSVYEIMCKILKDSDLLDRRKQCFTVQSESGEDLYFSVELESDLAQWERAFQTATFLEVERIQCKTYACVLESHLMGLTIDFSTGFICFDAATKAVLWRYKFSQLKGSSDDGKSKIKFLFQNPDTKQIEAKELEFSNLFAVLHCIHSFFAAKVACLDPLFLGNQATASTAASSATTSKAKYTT
Assay type: binding
Method in brief: (§1)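 Same steps as the G-zero format, apart from a peptide concentration of 10 uM in place of 20 uM in step 2. Amino-terminally biotinylated PL peptides bind GST-PDZ fusions, and retained peptide is quantified by 450 nm absorbance.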

Molecule | Classification
CSCC[C@H](NC(=O)[C@H](C)NC(=O)[C@H](CCCNC(=N)N)NC(=O)CNC(=O)[C@@H](NC(=O)[C@H](Cc1c[nH]c2ccccc12)NC(=O)[C@H](CCCNC(=N)N)NC(=O)CNC(=O)CCCC[C@@H]1SC[C@@H]2NC(=O)N[C@@H]21)[C@@H](C)O)C(=O)N[C@@H](CO)C(=O)N[C@@H](C)C(=O)N[C@@H](Cc1c[nH]c2ccccc12)C(=O)N[C@@H](CCCCN)C(=O)N1CCC[C@H]1C(=O)N[C@H](C(=O)N[C@@H](CCCNC(=N)N)C(=O)N[C@@H](CCCNC(=N)N)C(=O)N[C@@H](CCC(=O)O)C(=O)N[C@H](C(=O)N[C@@H](CCC(=O)O)C(=O)N[C@H](C(=O)O)C(C)C)[C@@H](C)O)[C@@H](C)O [HPV E6 #35 (modified)] (Biotin-GRWTGRAMSAWKPTRRETEV-OH; C-terminus assumed) | 4 (A450 nm 3-4)
CC[C@H](C)[C@H](NC(=O)[C@H](CCC(N)=O)NC(=O)[C@@H](NC(=O)[C@H](Cc1c[nH]cn1)NC(=O)[C@H](CCC(N)=O)NC(=O)[C@H](CC(=O)O)NC(=O)[C@H](CCC(=O)O)NC(=O)[C@H](CC(=O)O)NC(=O)[C@H](Cc1ccccc1)NC(=O)[C@@H]1CCCN1C(=O)[C@H](CCC(=O)O)NC(=O)[C@H](CC(N)=O)NC(=O)[C@H](CCC(=O)O)NC(=O)[C@@H]1CCCN1C(=O)[C@H](CC(=O)O)NC(=O)[C@H](CO)NC(=O)[C@H](CC(=O)O)NC(=O)CCCC[C@@H]1SC[C@@H]2NC(=O)N[C@@H]21)[C@@H](C)O)C(=O)N[C@H](C(=O)N[C@@H](CCCCN)C(=O)N[C@H](C(=O)O)C(C)C)[C@@H](C)O [PTEN] | 1 (A450 nm 0-1)
CC[C@H](C)[C@H](NC(=O)[C@H](CCC(N)=O)NC(=O)CCCC[C@@H]1SC[C@@H]2NC(=O)N[C@@H]21)C(=O)N[C@@H](CO)C(=O)N1CCC[C@H]1C(=O)NCC(=O)NCC(=O)N[C@@H](CC(C)C)C(=O)N[C@@H](CCC(=O)O)C(=O)N1CCC[C@H]1C(=O)N1CCC[C@H]1C(=O)N[C@@H](CO)C(=O)N[C@@H](CCC(=O)O)C(=O)N[C@@H](CCCCN)C(=O)N[C@@H](Cc1c[nH]cn1)C(=O)N[C@@H](Cc1ccccc1)C(=O)N[C@@H](CCCNC(=N)N)C(=O)N[C@@H](CCC(=O)O)C(=O)N[C@H](C(=O)N[C@@H](CCC(=O)O)C(=O)N[C@H](C(=O)O)C(C)C)[C@@H](C)O [Tax] | 5 (A450 nm of 4 more than 2× repeated)
A2AA_HUMAN (modified) (Biotin-HDFRRAFKKILARGDRKRIV; not fully specified) | 2 (A450 nm 1-2)
PYSELNYETSHYPASPDSWV (Biotin-PYSELNYETSHYPASPDSWV) [catenin - delta 2] | 1 (A450 nm 0-1)

What follows are molecules tested against T2, PDZ protein (GST-PDZ fusion) (Homo sapiens, UniProt Q13424) in the same assay as above. Conditions: PDZ Synt. 1 alpha, PDZ Domain 1.
T2 construct: made in house; host or cells: E. coli (DH5alpha, BL21 or JM109)
T2 sequence (Q13424 1-505): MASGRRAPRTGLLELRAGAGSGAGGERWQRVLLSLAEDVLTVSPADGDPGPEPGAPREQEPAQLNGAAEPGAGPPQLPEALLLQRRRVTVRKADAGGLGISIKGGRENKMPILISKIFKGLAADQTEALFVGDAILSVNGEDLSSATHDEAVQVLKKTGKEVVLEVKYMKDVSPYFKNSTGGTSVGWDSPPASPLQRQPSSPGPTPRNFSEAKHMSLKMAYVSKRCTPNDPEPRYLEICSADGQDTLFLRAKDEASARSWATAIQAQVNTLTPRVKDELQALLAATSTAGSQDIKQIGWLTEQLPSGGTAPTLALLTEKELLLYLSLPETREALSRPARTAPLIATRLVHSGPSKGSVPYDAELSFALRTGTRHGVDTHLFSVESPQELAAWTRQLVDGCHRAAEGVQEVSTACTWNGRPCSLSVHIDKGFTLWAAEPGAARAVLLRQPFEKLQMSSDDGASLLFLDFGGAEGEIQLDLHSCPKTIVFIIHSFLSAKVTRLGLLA
Assay type: binding
Method in brief: as §1

Molecule | Classification
CC(C)C[C@H](NC(=O)[C@H](C)NC(=O)[C@@H](NC(=O)[C@H](CCC(=O)O)NC(=O)[C@H](CCCNC(=N)N)NC(=O)[C@H](CCCNC(=N)N)NC(=O)CNC(=O)[C@H](CCC(N)=O)NC(=O)[C@H](CC(C)C)NC(=O)[C@H](CCCNC(=N)N)NC(=O)CNC(=O)CNC(=O)[C@H](CCCNC(=N)N)NC(=O)[C@H](C)NC(=O)[C@H](CO)NC(=O)[C@H](CCCNC(=N)N)NC(=O)CNC(=O)CNC(=O)[C@H](C)NC(=O)[C@H](C)NC(=O)CCCC[C@@H]1SC[C@@H]2NC(=O)N[C@@H]21)[C@@H](C)O)C(=O)O [HPV E6 33 (modified)] (Biotin-AAGGRSARGGRLQGRRETAL-OH; C-terminus assumed) | 3 (A450 nm 2-3)
CC(C)C[C@H](NC(=O)[C@H](CCCNC(=N)N)NC(=O)CNC(=O)CNC(=O)[C@H](CCCNC(=N)N)NC(=O)[C@H](C)NC(=O)[C@@H]1CCCN1C(=O)[C@H](CCCNC(=N)N)NC(=O)CNC(=O)CNC(=O)[C@@H](NC(=O)[C@H](C)NC(=O)CCCC[C@@H]1SC[C@@H]2NC(=O)N[C@@H]21)C(C)C)C(=O)N[C@@H](CCC(N)=O)C(=O)NCC(=O)N[C@@H](CCCNC(=N)N)C(=O)N[C@@H](CCCNC(=N)N)C(=O)N[C@@H](CCC(N)=O)C(=O)N[C@H](C(=O)N[C@@H](CCC(N)=O)C(=O)N[C@H](C(=O)O)C(C)C)[C@@H](C)O [HPV E6 58 (modified)] (Biotin-AVGGRPARGGRLQGRRQTQV-OH; C-terminus assumed) | 2 (A450 nm 1-2)
CSCC[C@H](NC(=O)[C@H](C)NC(=O)[C@H](CCCNC(=N)N)NC(=O)CNC(=O)[C@@H](NC(=O)[C@H](Cc1c[nH]c2ccccc12)NC(=O)[C@H](CCCNC(=N)N)NC(=O)CNC(=O)CCCC[C@@H]1SC[C@@H]2NC(=O)N[C@@H]21)[C@@H](C)O)C(=O)N[C@@H](CO)C(=O)N[C@@H](C)C(=O)N[C@@H](Cc1c[nH]c2ccccc12)C(=O)N[C@@H](CCCCN)C(=O)N1CCC[C@H]1C(=O)N[C@H](C(=O)N[C@@H](CCCNC(=N)N)C(=O)N[C@@H](CCCNC(=N)N)C(=O)N[C@@H](CCC(=O)O)C(=O)N[C@H](C(=O)N[C@@H](CCC(=O)O)C(=O)N[C@H](C(=O)O)C(C)C)[C@@H](C)O)[C@@H](C)O [HPV E6 #35 (modified)] (Biotin-GRWTGRAMSAWKPTRRETEV-OH; C-terminus assumed) | 5 (A450 nm of 4 more than 2× repeated)
ARHRVTSYTSSSVNVSSNL (Biotin-ARHRVTSYTSSSVNVSSNL) [IL-8RB] | 1 (A450 nm 0-1)

What follows are molecules tested against T3, PDZ protein (GST-PDZ fusion) (Homo sapiens, UniProt Q8TEW0) in the same assay as above. Conditions: PDZ PAR3, PDZ Domain 3.
T3 construct: made in house; host or cells: E. coli (DH5alpha, BL21 or JM109)
T3 sequence (Q8TEW0 whole entry, the tested form may be a part): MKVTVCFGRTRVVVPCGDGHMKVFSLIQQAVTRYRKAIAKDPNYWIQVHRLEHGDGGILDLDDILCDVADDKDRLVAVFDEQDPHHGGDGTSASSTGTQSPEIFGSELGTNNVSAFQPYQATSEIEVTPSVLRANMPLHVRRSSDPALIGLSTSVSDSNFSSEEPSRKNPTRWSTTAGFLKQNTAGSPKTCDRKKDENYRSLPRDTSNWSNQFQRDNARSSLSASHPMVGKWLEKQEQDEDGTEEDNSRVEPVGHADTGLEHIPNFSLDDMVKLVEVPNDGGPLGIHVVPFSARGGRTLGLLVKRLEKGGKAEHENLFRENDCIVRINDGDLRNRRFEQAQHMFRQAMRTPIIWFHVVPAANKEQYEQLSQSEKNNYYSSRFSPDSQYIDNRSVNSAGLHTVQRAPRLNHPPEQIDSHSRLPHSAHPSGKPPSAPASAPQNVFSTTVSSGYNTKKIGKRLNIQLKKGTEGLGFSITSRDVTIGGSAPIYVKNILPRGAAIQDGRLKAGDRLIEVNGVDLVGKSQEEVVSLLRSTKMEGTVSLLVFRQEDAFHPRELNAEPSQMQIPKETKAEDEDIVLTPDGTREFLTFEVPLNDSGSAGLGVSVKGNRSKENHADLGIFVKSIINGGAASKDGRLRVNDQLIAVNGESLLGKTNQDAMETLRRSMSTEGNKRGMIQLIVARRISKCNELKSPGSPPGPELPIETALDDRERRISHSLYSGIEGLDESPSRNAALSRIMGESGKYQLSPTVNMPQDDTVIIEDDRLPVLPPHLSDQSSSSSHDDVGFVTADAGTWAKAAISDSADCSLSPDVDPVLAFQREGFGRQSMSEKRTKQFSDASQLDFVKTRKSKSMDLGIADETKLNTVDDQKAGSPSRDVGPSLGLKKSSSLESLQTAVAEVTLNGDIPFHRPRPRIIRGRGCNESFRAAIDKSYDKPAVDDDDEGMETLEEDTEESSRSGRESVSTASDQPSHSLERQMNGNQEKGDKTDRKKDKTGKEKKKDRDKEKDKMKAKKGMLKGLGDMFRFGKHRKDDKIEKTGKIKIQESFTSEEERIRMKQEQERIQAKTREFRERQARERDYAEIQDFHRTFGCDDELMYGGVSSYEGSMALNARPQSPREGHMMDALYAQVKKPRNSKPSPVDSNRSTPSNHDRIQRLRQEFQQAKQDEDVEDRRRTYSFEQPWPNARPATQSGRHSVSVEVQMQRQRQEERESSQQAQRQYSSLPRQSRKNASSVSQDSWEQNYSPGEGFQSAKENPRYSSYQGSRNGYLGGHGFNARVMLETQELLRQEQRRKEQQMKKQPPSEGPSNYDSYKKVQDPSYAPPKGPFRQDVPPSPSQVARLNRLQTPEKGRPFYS
Assay type: binding
Method in brief: as §1

Classification | Molecule
5 (A450 nm of 4 more than 2× repeated) | CC[C@H](C)[C@H](NC(=O)[C@H](Cc1ccc(O)cc1)NC(=O)[C@@H](NC(=O)[C@@H]1CCCN1C(=O)[C@H](CCC(N)=O)NC(=O)[C@H](CCC(=O)O)NC(=O)[C@H](CCC(N)=O)NC(=O)[C@H](C)NC(=O)[C@@H](NC(=O)[C@H](CC(C)C)NC(=O)[C@H](CC(C)C)NC(=O)[C@H](CCCNC(=N)N)NC(=O)[C@H](Cc1ccc(O)cc1)NC(=O)[C@H](CCSC)NC(=O)[C@H](C)NC(=O)[C@H](C)NC(=O)[C@@H]1CCCN1C(=O)[C@H](CCSC)NC(=O)[C@@H](NC(=O)[C@H](CCCCN)NC(=O)CCCC[C@@H]1SC[C@@H]2NC(=O)N[C@@H]21)[C@@H](C)O)[C@@H](C)O)C(C)C)C(=O)O [MINT-1] (Biotin-KTMPAAMYRLLTAQEQPVYI-OH; C-terminus assumed)
5 (A450 nm of 4 more than 2× repeated) | CC[C@H](C)[C@H](NC(=O)[C@H](Cc1ccc(O)cc1)NC(=O)[C@H](CC(C)C)NC(=O)[C@H](CCC(N)=O)NC(=O)[C@H](Cc1c[nH]cn1)NC(=O)[C@H](CO)NC(=O)[C@H](C)NC(=O)[C@H](CC(C)C)NC(=O)[C@@H](NC(=O)[C@H](CC(=O)O)NC(=O)[C@H](CCSC)NC(=O)[C@H](Cc1ccccc1)NC(=O)[C@@H]1CCCN1C(=O)[C@H](CCCNC(=N)N)NC(=O)[C@@H](NC(=O)[C@H](CC(C)C)NC(=O)[C@H](CC(N)=O)NC(=O)[C@H](CC(=O)O)NC(=O)[C@@H](NC(=O)[C@H](CO)NC(=O)CCCC[C@@H]1SC[C@@H]2NC(=O)N[C@@H]21)[C@@H](C)O)C(C)C)[C@@H](C)O)C(=O)O [presenilin-2] (Biotin-STDNLVRPFMDTLASHQLYI-OH; C-terminus assumed)
2 (A450 nm 1-2) | A2AA_HUMAN (modified) (Biotin-HDFRRAFKKILARGDRKRIV; not fully specified)
3 (A450 nm 2-3) | ELLQFCRTPNPALKNGQYWV (Biotin-ELLQFCRTPNPALKNGQYWV)
1 (A450 nm 0-1) | KTMPAATYRLLTGQEQPVYL (Biotin-KTMPAATYRLLTGQEQPVYL) [MINT-3]
1 (A450 nm 0-1) | PYSELNYETSHYPASPDSWV (Biotin-PYSELNYETSHYPASPDSWV) [catenin - delta 2]
1 (A450 nm 0-1) | VHDAESSDEDGYDWGPATDL (Biotin-VHDAESSDEDGYDWGPATDL) [zona occludens 3 (ZO-3)]

The next lines start with the molecule.

Molecule | Classification
CC[C@H](C)[C@H](NC(=O)[C@H](C)NC(=O)[C@H](CC(C)C)NC(=O)[C@H](Cc1c[nH]c2ccccc12)NC(=O)[C@H](Cc1c[nH]cn1)NC(=O)[C@H](CCC(N)=O)NC(=O)[C@H](CC(C)C)NC(=O)[C@H](CCC(N)=O)NC(=O)[C@H](Cc1ccccc1)NC(=O)[C@H](CCC(N)=O)NC(=O)[C@H](CCCNC(=N)N)NC(=O)[C@@H](NC(=O)[C@H](CC(=O)O)NC(=O)[C@H](CCCNC(=N)N)NC(=O)[C@H](CCC(N)=O)NC(=O)[C@H](C)NC(=O)[C@@H](NC(=O)[C@H](CC(C)C)NC(=O)[C@H](Cc1c[nH]cn1)NC(=O)[C@H](Cc1c[nH]cn1)NC(=O)CCCC[C@@H]1SC[C@@H]2NC(=O)N[C@@H]21)C(C)C)[C@@H](C)CC)C(=O)O [noradrenaline transporter] (Biotin-HHLVAQRDIRQFQLQHWLAI-OH; C-terminus assumed) | 4 (A450 nm 3-4)
KTMPAAMFRLLTGQETPLYI (Biotin-KTMPAAMFRLLTGQETPLYI) [MINT-2] | 5 (A450 nm of 4 more than 2× repeated)
